Structures can show the parent of a compound that is named as a salt.
Tests used:
Target C mRNA = test: Gene panel canonical junction qPCR assay, Target C CJ mRNA decrease; format: cell-based; conditions: Homo sapiens, canonical junction qPCR, read-out: Target C IC50 (decrease in CJ mRNA levels)
Procedure, shortened: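 A673 or K562 cells were treated with compound, and lysates underwent cDNA synthesis and qPCR with a CY5 5′-nuclease probe or primer spanning the canonical exon junction. ΔCt versus GAPDH, GUSB or PPIA was normalized to DMSO (2^(−ΔΔCt)), converted to percentage response and fitted four-parameter logistic for IC50.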

HiBiT-tagged MYB protein = test: HiBiT protein abundance assay, MYB (K562 HiBiT knock-in cells); format: cell-based, human; conditions: 24 hours
Procedure, shortened: (§1)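 Luminescent readout of HiBiT-tagged endogenous protein after lysis, following 24 h compound exposure of knock-in K562 lines at 37 °C. Ten 3-fold concentrations from 10 μM final, DMSO ≤0.25%. Four-parameter logistic fit of normalized response gives concentration halving abundance (IC50).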

HiBiT-tagged HTT protein = test: HiBiT protein abundance assay, HTT (K562 HiBiT knock-in cells); format: cell-based, human; conditions: 24 hours
Procedure, shortened: as §1

K562 cells = test: Cell Titer Glo 2.0 cell viability assay in K562 cells; conditions: 72 hours
Description: Compounds described herein were screened for toxicity in K562 (human chronic myelogenous leukemia) and SH-SY5Y (human neuroblastoma) cells using a Cell Titer Glo 2.0 assay.
Cells were plated at 500 cells/well (K562 cells) in 45 μL of IMDM supplemented with 10% FBS in a 384-well opaque plate. Wells containing only medium were used as a blank control. Test compounds (e.g., compounds of Formula (I), (II), or (III)) were first serially diluted in DMSO then diluted 1:100 with IMDM+10% FBS. The final concentration of DMSO was 0.1% in each well. The cells were incubated for 72 hours at 37° C. and 5% CO2 before assaying with Cell Titer Glo 2.0 reagent.

IC50 (Target C mRNA) [nM]	IC50 (HiBiT-tagged MYB protein) [nM]	IC50 (HiBiT-tagged HTT protein) [nM]	Compound	Viability (K562 cells)
1000 to 10000	< 100	100 to 1000	Cc1cn2cc(NC(=O)c3ccc(N4CCNC(C)C4)c4ccnnc34)cc(F)c2n1 (stereo not drawn) [Compound 128]	B (B represents 100-1000 nM)
> 10000	1000 to 10000	> 10000	CCc1cc(NC(=O)c2ccc(N3CCNCC3)c3ccnnc23)nn2cc(C)nc12 [Compound 168, N-{8-ethyl-2-methylimidazo[1,2-b]pyridazin-6-yl}-5-(piperazin-1-yl)cinnoline-8-carboxamide trifluoroacetic acid salt]	C (C represents 1000-9999 nM)
> 10000	< 100	> 10000	COc1cnc2c(C(=O)Nc3cc(F)c4nc(C)cn4c3)ccc(N3CCNCC3)c2n1 [Compound 225, N-{8-fluoro-2-methylimidazo[1,2-a]pyridin-6-yl}-2-methoxy-8-(piperazin-1-yl)quinoxaline-5-carboxamide]	C (C represents 1000-9999 nM)
1000 to 10000	< 100	100 to 1000	COc1ccc2c(N3CCNCC3)ccc(C(=O)Nc3cc(F)c4nc(C)cn4c3)c2n1 [Compound 169, N-{8-fluoro-2-methylimidazo[1,2-a]pyridin-6-yl}-2-methoxy-5-(piperazin-1-yl)quinoline-8-carboxamide]	A (A represents <100 nM)
> 10000	< 100	1000 to 10000	CN[C@@H]1CCN(c2ccc(C(=O)Nc3cc(F)c4nc(C)cn4c3)c3nccnc23)C1 (single isomer, unassigned) [Compound 193, N-{8-fluoro-2-methylimidazo[1,2-a]pyridin-6-yl}-8-[3-(methylamino)pyrrolidin-1-yl]quinoxaline-5-carboxamide]	A (A represents <100 nM)
1000 to 10000	100 to 1000	1000 to 10000	Cc1cn2cc(NC(=O)c3ccc(N4CCC(N5CCCC5)C4)c4ccnnc34)cc(F)c2n1 (stereo not drawn) [Compound 133]	C (C represents 1000-9999 nM)
> 10000	1000 to 10000	> 10000	Cc1cn2cc(NC(=O)c3ccc(N4CCNC5(COC5)C4)c4nccnc34)cc(F)c2n1 [Compound 372]	C (C represents 1000-9999 nM)
> 10000	> 10000	> 10000	Cc1cn2cc(NC(=O)c3ccc(N4C[C@H]5C[C@@H]4C5N(C)C)c4ccnnc34)cc(F)c2n1 (stereo partly drawn) [Compound 155]	B (B represents 100-1000 nM)
1000 to 10000	< 100	1000 to 10000	Cc1cn2cc(NC(=O)c3ccc(N4CC(C)(C)NC(C)(C)C4)c4nccnc34)cc(F)c2n1 [Compound 219, N-{8-fluoro-2-methylimidazo[1,2-a]pyridin-6-yl}-8-(3,3,5,5-tetramethylpiperazin-1-yl)quinoxaline-5-carboxamide]	A (A represents <100 nM)
100 to 1000	< 100	100 to 1000	COc1ncc2c(N3C[C@@H](C)N[C@@H](C)C3)ccc(C(=O)Nc3cn4cc(C)nc4c(OC)n3)c2n1 [Compound 378]	A (A represents <100 nM)
1000 to 10000	< 100	1000 to 10000	CNC1CCN(c2ccc(C(=O)Nc3cc(F)c4nc(C)cn4c3)c3nc(C)ccc23)C1 (stereo not drawn) [Compound 196, N-{8-fluoro-2-methylimidazo[1,2-a]pyridin-6-yl}-2-methyl-5-[3-(methylamino)pyrrolidin-1-yl]quinoline-8-carboxamide 2,2,2-trifluoroacetate]	A (A represents <100 nM)
1000 to 10000	< 100	100 to 1000	Cc1cn2cc(NC(=O)c3ccc(N4CCNCC4)c4cccnc34)cc(F)c2n1 [Compound 165, N-{8-fluoro-2-methylimidazo[1,2-a]pyridin-6-yl}-5-(piperazin-1-yl)quinoline-8-carboxamide]	A (A represents <100 nM)
> 10000	> 10000	> 10000	Cc1cn2cc(NC(=O)c3ccc(N4CCNCC4)c4nnccc34)cc(F)c2n1 [Compound 166, N-(8-fluoro-2-methylimidazo[1,2-a]pyridin-6-yl)-8-(piperazin-1-yl)cinnoline-5-carboxamide 2,2,2-trifluoroacetate]	D (D represents greater than 10 μM in K562 cells)
> 10000	< 100	100 to 1000	CCNC1CCN(c2ccc(C(=O)Nc3cc(F)c4nc(C)cn4c3)c3nccnc23)CC1 [Compound 191, 8-[4-(ethylamino)piperidin-1-yl]-N-{8-fluoro-2-methylimidazo[1,2-a]pyridin-6-yl}quinoxaline-5-carboxamide]	B (B represents 100-1000 nM)
> 10000	< 100	100 to 1000	COc1cnc2c(N3CCNCC3)ccc(C(=O)Nc3cc(F)c4nc(C)cn4c3)c2n1 [Compound 207, N-{8-fluoro-2-methylimidazo[1,2-a]pyridin-6-yl}-3-methoxy-8-(piperazin-1-yl)quinoxaline-5-carboxamide; bis(trifluoroacetic acid)]	B (B represents 100-1000 nM)
100 to 1000	< 100	100 to 1000	COc1cnc2c(N3CCC(N(C)C)CC3)ccc(C(=O)Nc3cc(F)c4nc(C)cn4c3)c2n1 [Compound 206, 8-[4-(dimethylamino)piperidin-1-yl]-N-{8-fluoro-2-methylimidazo[1,2-a]pyridin-6-yl}-3-methoxyquinoxaline-5-carboxamide; trifluoroacetic acid]	B (B represents 100-1000 nM)
> 10000	< 100	100 to 1000	Cc1cn2cc(NC(=O)c3ccc(N4CCN[C@H](C)C4)c4ccnnc34)cc(F)c2n1 [Compound 146]	A (A represents <100 nM)
1000 to 10000	< 100	1000 to 10000	CCN1CCC(c2ccc(C(=O)Nc3cc(F)c4nc(C)cn4c3)c3nnccc23)CC1 [Compound 141]	C (C represents 1000-9999 nM)
> 10000	100 to 1000	1000 to 10000	Cc1cn2cc(NC(=O)c3ccc(N4CCNCC4)c4ccnnc34)cc(C#N)c2n1 [Compound 167, N-{8-cyano-2-methylimidazo[1,2-a]pyridin-6-yl}-5-(piperazin-1-yl)cinnoline-8-carboxamide trifluoroacetic acid salt]	B (B represents 100-1000 nM)
1000 to 10000	100 to 1000	1000 to 10000	Cc1cn2cc(NC(=O)c3ccc(C4CCNC5(CC5)C4)c4nccnc34)cc(F)c2n1 (stereo not drawn) [Compound 375]	B (B represents 100-1000 nM)
1000 to 10000	< 100	> 10000	COCCOc1ccc2c(N3CCNCC3)ccc(C(=O)Nc3cc(F)c4nc(C)cn4c3)c2n1 [Compound 173, N-{8-fluoro-2-methylimidazo[1,2-a]pyridin-6-yl}-2-(2-methoxyethoxy)-5-(piperazin-1-yl)quinoline-8-carboxamide]	B (B represents 100-1000 nM)
> 10000	100 to 1000	1000 to 10000	Cc1cn2cc(NC(=O)c3ccc(N4CCNCC4)c4ccnnc34)nc(C)c2n1 [Compound 164, N-{2,8-dimethylimidazo[1,2-a]pyrazin-6-yl}-5-(piperazin-1-yl)cinnoline-8-carboxamide 2,2,2-trifluoroacetate]	B (B represents 100-1000 nM)
1000 to 10000	100 to 1000	1000 to 10000	CNC1CCN(c2ccc(C(=O)Nc3cc(F)c4nc(C)cn4c3)c3nccnc23)C1 (stereo not drawn) [Compound 190, N-{8-fluoro-2-methylimidazo[1,2-a]pyridin-6-yl}-8-[3-(methylamino)pyrrolidin-1-yl]quinoxaline-5-carboxamide]	A (A represents <100 nM)
1000 to 10000	< 100	1000 to 10000	Cc1ccc2c(N3C[C@@H](C)N[C@@H](C)C3)ccc(C(=O)Nc3cc(F)c4nc(C)cn4c3)c2n1 [Compound 214, 5-[(3R,5S)-3,5-dimethylpiperazin-1-yl]-N-{8-fluoro-2-methylimidazo[1,2-a]pyridin-6-yl}-2-methylquinoline-8-carboxamide]	B (B represents 100-1000 nM)
> 10000	< 100	1000 to 10000	CC[C@@H]1CN(c2ccc(C(=O)Nc3cc(F)c4nc(C)cn4c3)c3nnccc23)CCN1 [Compound 151]	B (B represents 100-1000 nM)
> 10000	< 100	1000 to 10000	Cc1cn2cc(NC(=O)c3ccc(N4CCNC5(CC5)C4)c4nccnc34)cc(F)c2n1 [Compound 218, 8-{4,7-diazaspiro[2.5]octan-7-yl}-N-{8-fluoro-2-methylimidazo[1,2-a]pyridin-6-yl}quinoxaline-5-carboxamide]	B (B represents 100-1000 nM)
> 10000	1000 to 10000	> 10000	Cc1c(O)c(NC(=O)c2ccc(N3CCNCC3)c3ccnnc23)cc2cn(C)nc12 [Compound 181, N-(6-hydroxy-2,7-dimethylindazol-5-yl)-5-(piperazin-1-yl)cinnoline-8-carboxamide]	C (C represents 1000-9999 nM)
